This note sets out measurements from BindingDB's records for doi:10.1016/j.bioorg.2017.03.012 (Alexandria University, 2017).

The target in experiment [1] is T1, Polyunsaturated fatty acid 5-lipoxygenase (Homo sapiens, UniProt P09917).
T1 sequence (P09917 whole entry): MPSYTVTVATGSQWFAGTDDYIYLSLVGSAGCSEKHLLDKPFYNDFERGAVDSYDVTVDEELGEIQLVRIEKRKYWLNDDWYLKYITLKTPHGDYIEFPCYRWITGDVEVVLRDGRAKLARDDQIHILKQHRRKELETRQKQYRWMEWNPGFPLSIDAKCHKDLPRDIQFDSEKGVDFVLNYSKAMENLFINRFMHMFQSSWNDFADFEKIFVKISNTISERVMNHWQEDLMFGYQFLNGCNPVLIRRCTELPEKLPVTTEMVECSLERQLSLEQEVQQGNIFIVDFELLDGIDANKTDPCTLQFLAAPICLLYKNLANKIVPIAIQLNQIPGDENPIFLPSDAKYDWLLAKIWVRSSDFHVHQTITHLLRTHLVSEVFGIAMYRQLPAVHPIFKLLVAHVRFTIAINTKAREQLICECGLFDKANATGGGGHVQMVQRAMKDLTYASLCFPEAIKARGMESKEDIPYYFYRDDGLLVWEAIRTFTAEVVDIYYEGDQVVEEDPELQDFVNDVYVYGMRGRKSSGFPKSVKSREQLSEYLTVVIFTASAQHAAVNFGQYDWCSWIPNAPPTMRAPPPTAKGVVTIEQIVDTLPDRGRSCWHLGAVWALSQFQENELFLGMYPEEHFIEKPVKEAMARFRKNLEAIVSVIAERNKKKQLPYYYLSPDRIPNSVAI
In words: In Vitro Lipoxygenase (LOX) Inhibitory Assay. As for the experimental part:
All the newly synthesized compounds were also evaluated in vitro for their ability to inhibit lipoxygenase enzyme. This was carried out using Abnova lipoxygenase inhibitor screening assay kit (Catalog No. (KA1329). Inhibitors were dissolved in DMSO and were added to the assay in a final volume of 10 μl before initiating with substrate. Three concentrations were prepared (25, 50 and 100 μM) and the concentration that produced 50% enzyme inhibition was determined according to manufacturer instructions [Plačkov et al., Free Radic. Biol. Med., 97:223-235].

Experiment [2] concerns the target T2, Prostaglandin G/H synthase 2 (Ovis aries, UniProt P79208).
T2 sequence (P79208 whole entry): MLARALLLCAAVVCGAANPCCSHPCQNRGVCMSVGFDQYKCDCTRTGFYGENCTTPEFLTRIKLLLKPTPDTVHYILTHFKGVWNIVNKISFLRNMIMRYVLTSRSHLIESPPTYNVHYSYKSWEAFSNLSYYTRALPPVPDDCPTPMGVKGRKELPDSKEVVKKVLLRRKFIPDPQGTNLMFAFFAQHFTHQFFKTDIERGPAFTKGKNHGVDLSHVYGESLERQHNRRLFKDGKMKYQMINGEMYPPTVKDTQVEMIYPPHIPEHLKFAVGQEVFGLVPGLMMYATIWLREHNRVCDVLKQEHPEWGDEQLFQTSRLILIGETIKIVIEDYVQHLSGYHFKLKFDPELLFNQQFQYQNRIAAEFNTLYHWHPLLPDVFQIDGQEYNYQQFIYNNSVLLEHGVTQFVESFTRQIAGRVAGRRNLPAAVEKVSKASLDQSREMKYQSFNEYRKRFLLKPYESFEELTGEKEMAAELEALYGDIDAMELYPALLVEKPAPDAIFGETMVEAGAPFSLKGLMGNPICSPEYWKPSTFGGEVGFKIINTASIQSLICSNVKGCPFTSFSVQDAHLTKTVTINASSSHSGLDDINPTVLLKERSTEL
Briefly: In Vitro COX-1 and COX-2 Inhibitory Assay.

For experiment [3], the target named is T3, Prostaglandin G/H synthase 1 (Ovis aries, UniProt P05979).
T3 sequence (P05979 whole entry): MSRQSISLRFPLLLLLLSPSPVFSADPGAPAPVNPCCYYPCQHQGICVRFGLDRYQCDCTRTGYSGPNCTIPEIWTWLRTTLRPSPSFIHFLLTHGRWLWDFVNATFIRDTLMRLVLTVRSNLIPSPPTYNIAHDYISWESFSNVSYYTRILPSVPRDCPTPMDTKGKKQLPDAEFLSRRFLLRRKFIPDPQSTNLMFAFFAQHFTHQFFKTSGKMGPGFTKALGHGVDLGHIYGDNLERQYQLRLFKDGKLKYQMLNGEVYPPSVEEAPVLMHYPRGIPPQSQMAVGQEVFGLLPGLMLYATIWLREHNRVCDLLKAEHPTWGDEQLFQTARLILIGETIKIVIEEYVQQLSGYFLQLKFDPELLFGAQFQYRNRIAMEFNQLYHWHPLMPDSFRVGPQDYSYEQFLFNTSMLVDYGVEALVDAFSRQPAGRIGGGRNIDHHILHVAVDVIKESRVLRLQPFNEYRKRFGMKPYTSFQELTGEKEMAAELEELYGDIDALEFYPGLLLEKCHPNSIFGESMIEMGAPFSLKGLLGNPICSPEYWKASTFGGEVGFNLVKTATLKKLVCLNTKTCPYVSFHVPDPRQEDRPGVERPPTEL
In words: In Vitro COX-1 and COX-2 Inhibitory Assay.

pIC50: −log10 of the molar value.

For `Cc1ccc(Cl)c(Nc2ccccc2C(=O)O)c1Cl`, the pIC50 in experiment [1] is 5.25.

As for `O=C(NN1C(=O)CSC1=S)c1sc2ccccc2c1Cl` [3-Chloro-N-(4-oxo-2-thioxothiazolidin-3-yl)benzo[b]thiophene-2-carboxamide (4)], the pIC50 was 5.16 in experiment [1], 5.61 in experiment [2] and 5.06 in experiment [3].

Take `COc1ccc(-c2nn(-c3ccccc3)cc2/C=C2\SC(=S)N(NC(=O)c3sc4ccccc4c3Cl)C2=O)cc1` [3-Chloro-N-(5-{[3-(4-methoxyphenyl)-1-phenyl-1H-pyrazol-4-yl]methylene}-4-oxo-2-thioxothiazolidin-3-yl)benzo[b]thiophene-2-carboxamide (5b)]: the pIC50 in experiment [1] was 5.06; in experiment [2], 5.58; in experiment [3], 5.12.

Regarding `O=C1Nc2ccccc2/C1=C1\SC(=S)N(NC(=O)c2sc3ccccc3c2Cl)C1=O` [3-Chloro-N-[4-oxo-5-(2-oxoindolin-3-ylidene)-2-thioxothiazolidin-3-yl]benzo[b]thiophene-2-carboxamide (5i)], the pIC50 in experiment [1] was 5.16; in experiment [2], 5.81; in experiment [3], 5.23.

In the case of `COc1ccc(/C=C2\SC(=S)N(NC(=O)c3sc4ccccc4c3Cl)C2=O)cc1OC` [3-Chloro-N-[5-(3,4-dimethoxybenzylidene)-4-oxo-2-thioxothiazolidin-3-yl]benzo [b]thiophene-2-carboxamide (5h)], the negative-log IC50 (pIC50) in experiment [3] was 5.47.

In the case of `O=C(NN1C(=O)/C(=C/c2ccc(Cl)cc2)SC1=S)c1sc2ccccc2c1Cl` [3-Chloro-N-[5-(4-chlorobenzylidene)-4-oxo-2-thioxothiazolidin-3-yl]benzo[b]thiophene-2-carboxamide (5f)], the pIC50 is 5.43 in experiment [1], 5.91 in experiment [2] and 5.31 in experiment [3].

For `COc1cc(/C=C2\SC(=S)N(NC(=O)c3sc4ccccc4c3Cl)C2=O)ccc1O` [3-Chloro-N-[5-(4-hydroxy-3-methoxybenzylidene)-4-oxo-2-thioxothiazolidin-3-yl]benzo [b]thiophene-2-carboxamide (5g)], the pIC50 in experiment [1] is 5.16; in experiment [2], 5.37; in experiment [3], 4.98.

Regarding `COc1ccc(/C=C2\SC(=S)N(NC(=O)c3sc4ccccc4c3Cl)C2=O)cc1` [3-Chloro-N-[5-(4-methoxybenzylidene)-4-oxo-2-thioxothiazolidin-3-yl]benzo[b]thiophene-2-carboxamide (5e)], the pIC50 in experiment [1] is 5.30; in experiment [2] it was 5.72; in experiment [3] it was 5.20.

In the case of `O=C(NN1C(=O)/C(=C/c2cn(-c3ccccc3)nc2-c2ccccc2)SC1=S)c1sc2ccccc2c1Cl` [3-Chloro-N-{5-[(1,3-diphenyl-1H-pyrazol-4-yl)methylene]-4-oxo-2-thioxothiazolidin-3-yl}benzo[b]thiophene-2-carboxamide (5a)], the pIC50 is 5.40 in experiment [1], 5.83 in experiment [2] and 5.29 in experiment [3].

With `Cc1ccc(-c2cc(C(F)(F)F)nn2-c2ccc(S(N)(=O)=O)cc2)cc1` [Celecoxib], the pIC50 in experiment [1] was 5.16.

On to `O=C(NN1C(=O)CSC1=S)c1cc2ccccc2o1` [N-(4-Oxo-2-thioxothiazolidin-3-yl)benzofuran-2-carboxamide (9)], for which the pIC50 in experiment [1] is 5.23; in experiment [2], 5.74; in experiment [3] it was 5.17.

Take `O=C(NN1C(=O)/C(=C/c2ccccc2)SC1=S)c1sc2ccccc2c1Cl` [N-(5-Benzylidene-4-oxo-2-thioxothiazolidin-3-yl)-3-chlorobenzo[b]thiophene-2-carboxamide (5d)]: the pIC50 in experiment [1] was 5.06; in experiment [2], 5.51; in experiment [3] it was 4.97.

In the case of `O=C(NN1C(=O)/C(=C/c2cn(-c3ccccc3)nc2-c2ccc(Br)cc2)SC1=S)c1sc2ccccc2c1Cl` [N-(5-{[3-(4-Bromophenyl)-1-phenyl-1H-pyrazol-4-yl]methylene}-4-oxo-2-thioxothiazolidin-3-yl)-3-chlorobenzo[b]thiophene-2-carboxamide (5c)], the pIC50 is 5.02 in experiment [1], 5.31 in experiment [2] and 4.91 in experiment [3].

As to `O=C(NN1C(=O)/C(=C/c2cn(-c3ccccc3)nc2-c2ccc(Br)cc2)SC1=S)c1cc2ccccc2o1` [N-(5-{[3-(4-Bromophenyl)-1-phenyl-1H-pyrazol-4-yl]methylene}-4-oxo-2-thioxothiazolidin-3-yl)benzofuran-2-carboxamide (10c)], the negative logarithm of the IC50 (pIC50) in experiment [1] was 4.99; in experiment [2] it was 5.27; in experiment [3], 4.87.

Turning to `COc1ccc(-c2nn(-c3ccccc3)cc2/C=C2\SC(=S)N(NC(=O)c3cc4ccccc4o3)C2=O)cc1` [N-(5-{[3-(4-Methoxyphenyl)-1-phenyl-1H-pyrazol-4-yl]methylene}-4-oxo-2-thioxothiazolidin-3-yl)benzofuran-2-carboxamide (10b)], the figures for the pIC50 in experiment [1], in experiment [2] and in experiment [3] were 5.16, 5.56 and 5.06, respectively.

For `O=C(NN1C(=O)/C(=C/c2cn(-c3ccccc3)nc2-c2ccccc2)SC1=S)c1cc2ccccc2o1` [N-{5-[(1,3-Diphenyl-1H-pyrazol-4-yl)methylene]-4-oxo-2-thioxothiazolidin-3-yl}benzofuran2-carboxamide (10a)], the negative-log IC50 (pIC50) in experiment [1] is 5.04; in experiment [2], 5.32; in experiment [3] it was 4.91.

For orientation: pIC50 means the negative decadic logarithm of the IC50, by convention in mol/L.
